{
  "source": "patent US6935334B2",
  "about": "“Enhancing therapeutic effectiveness of nitric oxide inhalation” (The General Hospital Corporation, priority 2000, dated 2005)",
  "type_in_all_cases": "in vivo, mouse",
  "key": {"[1]": {"system": "hypoxic pulmonary vasoconstriction (HPV) in mice", "assay": "Redistribution of pulmonary blood flow (QLPA/QPA) after left mainstem bronchus occlusion (LMBO), murine HPV model", "description": "Group 3: endotoxin-treated+L-NIL. SV129/B6F1 wild-type mice (n=5) were injected intraperitoneally with 10 mg/kg E. coli 011B4 endotoxin dissolved in 0.2 mL saline. Three hours after the endotoxin challenge, mice were treated with L-NIL 5 mg/kg intraperitoneally. Studies were performed 22 hours after the endotoxin challenge. In additional SV129/B6F1 mice with (n=5) and without (n=4) a prior challenge of endotoxin (22 hours earlier), the acute response to an intravenous bolus of 5 mg/kg L-NIL administered during LMBO, was studied.\nGroup 4: prolonged exposure to 4 or 40 ppm NO. Saline-treated SV129 wild-type mice (n=5) and NOS2-deficient mice (n=5) breathed 40 ppm NO in air for 22 hours and were studied 1 hour after discontinuation of NO inhalation. SV129 wild-type mice (n=5) and NOS2-deficient mice (n=5) breathed 40 ppm NO in air for 22 hours after challenge with 10 mg/kg endotoxin intraperitoneally and were studied 1 hour after discontinuation of NO inhalation. Additional NOS2-deficient mice (n=4) breathed 4 ppm of NO in air for 22 hours after challenge with 10 mg/kg endotoxin intraperitoneally and were studied 1 hour after discontinuation of NO inhalation.\nExperimental preparation. Mice were anesthetized by intraperitoneal injection of ketamine (0.1 mg/g body weight [bw]). Tracheostomy and arterial catheterization were performed as described previously (Steudel et al., 1997, Circ. Res. 81:34-41). A custom-made endotracheal tube (22G Angiocath; Becton Dickinson Healthcare Systems, Sandy, Utah, USA), combined with a 2 French Fogarty arterial embolization catheter (Baxter Healthcare Corp., Irvine, Calif., USA) was inserted into the trachea, with the balloon tip of the Fogarty catheter initially remaining in the trachea. Volume-controlled ventilation was initiated at a respiratory rate of 110-120 breaths per minute, at FiO2 1.0, a peak inspiratory pressure of 13 cm H2O, and a positive end-expiratory pressure level of 2-3 cm H2O. A right parasternal thoracotomy was performed, and a small-vessel ultrasonic flow probe (1RB; Transonic Instruments, Ithaca, N.Y.) was placed around the right pulmonary artery and fixed in position using a micromanipulator (X-tra Hand; TechniTool, Plymouth, Pa.). A 4-0 silk suture was positioned around the left main pulmonary artery to allow transient vascular occlusion. A pulmonary artery catheter (PE10) was inserted into the main pulmonary artery by direct puncture. In other experiments, a lower thoracic aortic flow probe was placed as reported previously (Steudel et al., supra).\nBlood flow and pressure measurements. Mean systemic arterial pressure (PSA), mean pulmonary artery pressure (PPA), and in some studies PLA, were continuously monitored using biomedical amplifiers (Hewlett Packard 8805C, Palo Alto, Calif.; Siemens Sirecust 960, Danvers, Mass.). Mean lower thoracic aortic flow (QLTAF) and right pulmonary artery flow (QRPA) were measured with small vessel flow probes connected to a flowmeter (T106; Transonic Instruments). In some experiments, left ventricular end-diastolic pressure was measured with a 1.4 Fr. Millar catheter. The catheter was advanced through the right carotid artery into the left ventricle. […] All monitoring equipment was calibrated before each experiment.\nDifferential measurement of left and right pulmonary artery flow. To assess the contribution of QRPA and left pulmonary artery flow (QLPA) to total pulmonary artery flow (QPA), transient occlusion (90 seconds) of the left pulmonary artery (QLPA) was performed. QRPA during acute left pulmonary artery occlusion was considered to be QPA (i.e., cardiac output) and correlated closely (r2=0.88; y=0.95x+0.38; n=9) with QLTAF. QLPA was calculated as the difference between QRPA during left pulmonary artery occlusion (QPA) and QRPA with a patent left pulmonary artery (QLPA=QPA−QRPA). Absolute values of respective flows were recorded, and the fractional distribution of flow to the right and left lungs (QRPA/QPA and QLPA/QPA) was calculated. […]"}, "[2]": {"assay": "Wet-to-dry lung weight ratio after isolated lung perfusion (Example 1)", "details": "exposure to NO inhalation for 16 h", "description": "Wet-to-Dry Lung Weight Ratio At the end of each experiment, both lungs, excluding hilar structures, were excised and weighed (wet weight). Thereafter, the lungs were dried in a microwave oven for 60 min, as previously described (Holzmann et al., supra), and then reweighed (dry weight). Wet-to-dry lung weight ratios were calculated by dividing the wet weight by the dry weight."}, "[3]": {"assay": "Lung wet/dry ratio (Example 2)", "details": "breathing 4 or 40 ppm NO for 22 hours", "description": "Lung wet/dry ratio. After euthanasia with pentobarbital (0.1 mg/g intraperitoneally), both lungs, excluding hilar structures, were excised, blotted, and immediately weighed. Thereafter, the tissue was dried in a microwave oven for 60 minutes, as described previously (20), and reweighed. Lung wet/dry ratio was calculated."}},
  "data": [
    {"smiles": "[N]=O", "note": "[NO, Nitric oxide]", "values": [
      {"measurement": "reduction of QLPA/QPA after LMBO", "setting": "[1]; endotoxin-treated NOS2-deficient mice after prolonged inhalation of 40 ppm NO for 22 hours", "value": "20±7", "unit": "%"},
      {"measurement": "reduction of QLPA/QPA after LMBO", "setting": "[1]; endotoxin-treated NOS2-deficient mice breathing 4 ppm NO for 22 hours", "value": "62±2", "unit": "%"},
      {"measurement": "reduction of QLPA/QPA after LMBO", "setting": "[1]; endotoxin-treated wild-type mice breathing 40 ppm NO for 22 hours", "value": "19±10", "unit": "%"},
      {"measurement": "reduction of QLPA/QPA after LMBO", "setting": "[1]; saline-treated NOS2-deficient mice after breathing 40 ppm NO for 22 hours, measured 1 hour later", "value": "50±11", "unit": "%"},
      {"measurement": "reduction of QLPA/QPA after LMBO", "setting": "[1]; saline-treated wild-type mice after breathing 40 ppm NO for 22 hours, measured 1 hour later", "value": "51±10", "unit": "%"},
      {"measurement": "wet-to-dry lung weight ratio", "setting": "[2]; lipopolysaccharide-pretreated NOS2-deficient mice", "value": "5.1±0.2"},
      {"measurement": "wet-to-dry lung weight ratio", "setting": "[2]; lipopolysaccharide-pretreated wild-type mice", "value": "4.9±0.1"},
      {"measurement": "wet-to-dry lung weight ratio", "setting": "[2]; untreated NOS2-deficient mice", "value": "4.8±0.1"},
      {"measurement": "wet-to-dry lung weight ratio", "setting": "[2]; untreated wild-type mice", "value": "4.5±0.3"},
      {"measurement": "wet/dry lung weight ratios", "setting": "[3]", "value": "did not alter"}
    ]}
  ]
}
